pKi: −log10 of the molar value.
biological target: T1, Carbonic anhydrase (Saccharomyces cerevisiae S288c, UniProt P53615)
T1 sequence (P53615 whole entry): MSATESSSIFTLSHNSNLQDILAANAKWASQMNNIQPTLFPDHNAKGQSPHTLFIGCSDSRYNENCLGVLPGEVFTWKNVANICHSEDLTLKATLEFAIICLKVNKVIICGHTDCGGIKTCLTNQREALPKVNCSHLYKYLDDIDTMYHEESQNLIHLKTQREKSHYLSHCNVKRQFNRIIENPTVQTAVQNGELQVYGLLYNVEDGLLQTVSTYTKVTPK
Description: Inhibition of Saccharomyces cerevisiae recombinant CA expressed in Escherichia coli by stopped-flow CO2 hydrase assay

SMILES | pKi
NS(=O)(=O)c1ccc(CO)cc1 | 5.05
NS(=O)(=O)c1ccc(CCO)cc1 | 5.12
O=C1NS(=O)(=O)c2ccccc21 [SACCHARIN] | 4.90
Cc1ccc(S(N)(=O)=O)cc1 [P-TOLUENESULFONAMIDE] | 4.79
Nc1ccc(S(N)(=O)=O)cc1Cl | 6.34
NS(=O)(=O)c1nnc(-c2ccccc2Cl)s1 | 6.25
Nc1nnc(S(N)(=O)=O)s1 | 6.35
Nc1ccc(S(N)(=O)=O)cc1I | 6.01
Nc1ccc(S(N)(=O)=O)cc1 [SULFANILAMIDE] | 4.73
NS(=O)(=O)c1ccc(C(=O)O)cc1 [CARZENIDE] | 4.84
NCCc1ccc(S(N)(=O)=O)cc1 | 6.79
NCc1ccc(S(N)(=O)=O)cc1 [MAFENIDE] | 6.36

Continued by rising pKi, values first:

pKi | SMILES
6.41 | Nc1ccc(S(N)(=O)=O)cc1F
6.61 | Nc1ccc(S(N)(=O)=O)cc1Br
6.65 | Nc1cc(C(F)(F)F)c(S(N)(=O)=O)cc1S(N)(=O)=O [2,4-DISULFAMYLTRIFLUOROMETHYLANILINE]
6.77 | Nc1cc(Cl)c(S(N)(=O)=O)cc1S(N)(=O)=O
6.78 | Nc1ccc(S(=O)(=O)NCc2ccc(S(N)(=O)=O)cc2)cc1
6.81 | Nc1ccc(S(=O)(=O)NCCc2ccc(S(N)(=O)=O)cc2)cc1
6.88 | NS(=O)(=O)c1ccc(S(=O)(=O)Nc2cccc3c(Cl)c[nH]c23)cc1
6.91 | Nc1ccc(S(=O)(=O)Nc2nnc(S(N)(=O)=O)s2)cc1
6.94 | CCN[C@H]1CN(CCCOC)S(=O)(=O)c2sc(S(N)(=O)=O)cc21 [BRINZOLAMIDE]
6.95 | NS(=O)(=O)c1nnc(NS(=O)(=O)c2ccccc2)s1 [BENZOLAMIDE]
6.96 | CC1(C)O[C@@H]2[C@@H](CO[C@@]3(COS(N)(=O)=O)OC(C)(C)O[C@@H]23)O1 [TOPIRAMATE]
6.97 | Cc1ccc(-c2cc(C(F)(F)F)nn2-c2ccc(S(N)(=O)=O)cc2)cc1 [CELECOXIB]
7.82 | Nc1nccc(Nc2ccc(S(N)(=O)=O)cc2)n1

— ChEMBL document CHEMBL1143347, “Carbonic anhydrase inhibitors: inhibition of the beta-class enzyme from the yeast Saccharomyces cerevisiae with sulfonamides and sulfamates” (Bioorg Med Chem, 2009)
